Measurements as given in patent US12291521B2, “Indazole compounds as mGluR4 allosteric potentiators, compositions, and methods of treating neurological dysfunction” (Vanderbilt University, priority 2017, dated 2025).
Like-named read-outs stand apart in the source and are kept apart here.

Legend:
[1] = Brain-plasma Kp (CNS penetration); type: in vivo; conditions: rat, brain and plasma; species not given
human mGlu4 = molecular target: T1, human mGlu4 (Homo sapiens, UniProt Q14833); assay: mGlu4 PAM potentiation in human mGlu4/Gqi5 cells with ~EC20 glutamate (Hamamatsu FDSS); type: cell-based; conditions: ~EC20 concentration of glutamate
T1 construct: expressed in transfected cells; host or cells: CHO (Chinese Hamster Ovary) cells
Description: The disclosed compounds and compositions can be evaluated for their ability to act as a potentiatior of metabotropic glutamate receptor activity, in particular mGluR4 activity, by any suitable known methodology known in the art. For example, Chinese Hamster Ovary (CHO) cells transfected with human mGluR4 or HEK cells co-transfected with rat mGluR4 and the G-protein regulated Inwardly Rectifying Potassium channel (GIRK) were plated in clear bottom assay plates for assay in a Hamamatsu FDSS Fluorometric Plate Reader. The cells were loaded with either a Ca2+-sensitive fluorescent dye or the thallium responsive dye and the plates were washed and placed into a suitable kinetic plate reader. For human mGluR4 assays, a fluorescence baseline was established for 3-5 seconds, the disclosed compounds were then added to the cells, and the response in cells was measured. Approximately two and a half minutes later, a concentration of mGluR4 orthosteric agonist (e.g. glutamate, L-AP4, or L-SOP) eliciting approximately 20% (EC20) of the maximal agonist response was added to the cells, and the response was measured. Two minutes later, a concentration of mGluR4 agonist (e.g. glutamate, L-AP4, or L-SOP) eliciting 80% (EC80) of the maximal agonist response was added to the cells, and the response was measured. For rat mGluR4/GIRK experiments, a baseline was established for approximately five seconds, disclosed compounds were added, and either an EC20 or EC80 concentration of agonist was added approximately two and one half minutes later.
The above described assay operated in two modes. In the first mode, a range of concentrations of the disclosed compounds are added to cells, followed by a single fixed concentration of agonist. If the compound acts as a potentiatior, an EC50 value for potentiation and a maximum extent of potentiation by the compound at this concentration of agonist is determined by non-linear curve fitting. If the compound acts as an antagonist, an IC50 value is determined by non-linear curve fitting. In the second mode, several fixed concentrations of the disclosed compounds are added to various wells on a plate, followed by a range in concentrations of agonist for each concentration of disclosed compound. The EC50 values for the agonist at each concentration of compound are determined by non-linear curve fitting. A decrease in the EC50 value of the agonist with increasing concentrations of the sample compound (a leftward shift of the agonist concentration-response curve) is an indication of the degree of mGluR4 potentiation at a given concentration of the sample compound. A decrease in the maximal response of the agonist with increasing concentrations of the sample compounds, with or without a rightward shift in agonist potency, is an indication of the degree of antagonism at mGluR4. The second mode also indicates whether the sample compounds also affect the maximum response to mGluR4 to agonists.

T1 sequence (Q14833 33-912): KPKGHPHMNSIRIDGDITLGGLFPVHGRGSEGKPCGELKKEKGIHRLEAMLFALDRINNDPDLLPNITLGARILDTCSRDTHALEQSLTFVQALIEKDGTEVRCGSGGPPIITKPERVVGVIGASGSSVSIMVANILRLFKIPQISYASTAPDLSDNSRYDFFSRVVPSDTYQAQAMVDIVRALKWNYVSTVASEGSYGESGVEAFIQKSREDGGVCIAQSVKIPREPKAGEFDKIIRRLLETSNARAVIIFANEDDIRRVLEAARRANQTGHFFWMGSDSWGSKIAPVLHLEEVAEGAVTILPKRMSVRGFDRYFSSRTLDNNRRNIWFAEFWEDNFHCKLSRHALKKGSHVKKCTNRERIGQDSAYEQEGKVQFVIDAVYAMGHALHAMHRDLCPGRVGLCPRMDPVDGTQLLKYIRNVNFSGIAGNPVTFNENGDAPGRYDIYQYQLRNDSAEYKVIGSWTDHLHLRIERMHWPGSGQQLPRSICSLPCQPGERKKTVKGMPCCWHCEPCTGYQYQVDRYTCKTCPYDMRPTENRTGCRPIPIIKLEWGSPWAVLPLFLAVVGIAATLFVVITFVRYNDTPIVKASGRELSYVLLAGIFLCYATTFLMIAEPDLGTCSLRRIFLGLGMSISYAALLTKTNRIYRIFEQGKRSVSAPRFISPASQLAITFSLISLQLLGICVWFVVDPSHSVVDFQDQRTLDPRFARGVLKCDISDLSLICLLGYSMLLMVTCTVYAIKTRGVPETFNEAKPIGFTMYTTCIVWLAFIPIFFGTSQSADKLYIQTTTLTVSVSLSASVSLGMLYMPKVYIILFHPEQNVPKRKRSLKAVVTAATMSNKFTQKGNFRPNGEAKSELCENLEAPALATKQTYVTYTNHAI

| Kp [1] | EC50 (human mGlu4; second chart, read-out: hmGluR4 PAM EC50) [nM] | EC50 (human mGlu4; read-out: mGlu4 PAM EC50) [nM] | Compound |
| --- | --- | --- | --- |
| 3.29 | 99.2 | – | Cn1nc(OCC2CCCOC2)c2ccc(NC(=O)c3ccc(F)cn3)cc21 (stereo not shown) |
| – | – | 413 | CC(C)Oc1nn(C)c2cc(Nc3n[nH]c4cccnc34)ccc12 [Compound 1] |
| – | – | 104 | Cc1cc(COc2nn(C)c3cc(Nc4n[nH]c5cccnc45)ccc23)on1 [Compound 2] |
| – | – | 231 | CC(C)COc1nn(C)c2cc(Nc3n[nH]c4cccnc34)ccc12 [Compound 3] |
| – | – | 82.7 | Cn1nc(OCc2cccnc2)c2ccc(Nc3n[nH]c4cccnc34)cc21 [Compound 6] |
| – | – | 991 | Cc1ccnc(C(=O)Nc2ccc3c(OCC4CCOC4)nn(C)c3c2)c1 (stereo not shown) [Compound 98] |
